# From PMC10518255, “A first-in-class pan-lysyl oxidase inhibitor impairs stromal remodeling and enhances gemcitabine response and survival in pancreatic cancer” (Nature Cancer, 2023)
# Several values for one entry are separate records, joined by “and”; a condition that tells them apart may be missing. Equal values may be shown once.
# Columns and labels:
# [1] = system: Lysyl oxidase family activity in ear; test: Target engagement: lysyl oxidase family activity in ear after single 30 mg/kg oral dose (Fig. 2g); assay type: in vivo, rat; parameters: Lysyl oxidase family activity in the ear: unit not given here; conditions: rats; for Lysyl oxidase family activity in the ear: single 30 mg/kg oral, individual samples, 30 mg/kg
# Protocol: Data are presented as mean ± s.d. Two-tailed P value determined by unpaired, nonparametric t-test with a Mann–Whitney U-test correction (comparison to PBS control). h, Lysyl oxidase family activity measured in freshly excised aorta determined by fluorometric activity assay n = 19 (PBS), 5 (4–120 h) biological independent samples. Data presented as mean ± s.d. Two-tailed P value determined by unpaired, nonparametric t-test with a Mann–Whitney U-test correction (comparison to PBS control).
# To confirm that PXS-5505 inhibits lysyl oxidase family enzymatic activity in tissues, target engagement experiments were performed following a single oral dose (30 mg kg^−1) in rats. […] Lysyl oxidase family activity was measured in two tissues; aorta (core tissue) and ear (peripheral tissue).
# [2] = system: collagen crosslinks (DHLNL, Pyr) in KPC CAF organotypic matrices; test: Collagen crosslink quantification by LC-MS in organotypic matrices; assay type: cell-based, mouse
# Protocol: Fig. 3 PXS-5505 inhibition of CAF remodeling in vitro. a, Quantitative PCR with reverse transcription (qRT–PCR) showing in vitro comparison of KPC CAF relative expression of lysyl oxidase family members compared to KPC CCs from the same model (n = 3 biologically independent samples). Comparisons were determined by 2^–∆∆Ct approach. b, Representative images of 3D organotypic matrix contraction assay at days 2, 6 and 12 in the absence (gray) or presence (pink) of PXS-5505 (30 µM). Scale bars, 5 mm. Comparison of measured area of matrices between control and PXS-5505 treatment groups over time (n = 3 technical samples examined over three biologically independent samples). Data are mean ± s.d. c, Concentration of immature divalent DHLNL and mature trivalent Pyr collagen crosslinks determined by LC–MS from control and PXS-5505-treated organotypic matrices at day 12 ([…]). Data are mean ± s.d. […] Data are presented as mean ± s.d. […] Comparison of number of CCs invaded per field of view (FOV) as determined by H&E and PanCK staining (nine images taken from three technical samples from each of three biologically independent contracted matrices), normalized to control. Data are mean ± s.d. Scale bars, 100 μm. […] Source data
# KPC CAFs embedded in 3D organotypic matrices remodel and crosslink them.
# Collagen matrices were freeze dried and reduced with NaBH4. The resulting pellet was hydrolyzed with 6 mol l^−1 HCl at 100 °C for 24 h. An automated solid phase extraction system (Gilson GX-271 ASPECA system) was used to extract hydroxyproline and crosslinks from the hydrolysate. The samples were analyzed for hydroxyproline crosslinks by a UHPLC–ESI–MS/MS on a Thermo Dionex UPHPLC and TSQ Endura triple quadmass spectrometer as previously published. The lower limit of detection was 0.013 pmol 10 µl^−1.
# Plasma stability = assay type: in vitro ADME; conditions: In vitro (human)
# [3] = LC/MS, organotypic matrices at day 12, single replicates (3 biological x 2 technical)
# [4] = day 12, normalized to total collagen content
compound,measurement,setting,value
"Cl.Cl.NC/C=C(\F)CS(=O)(=O)c1cccc2cccnc12.O [PXS-5505, (Z)-3-fluoro-4-(quinolin-8-ylsulfonyl)but-2-en-1-amine dihydrochloride monohydrate]",recovery of lysyl oxidase family activity in the ear,"[1]; single 30 mg kg−1 oral, over 120 h",approximately 50%
same,Lysyl oxidase family activity in the ear,[1]; 4 h,45.365 and 48.796 and 39.3331 and 45.8641 and 44.4191
same,Lysyl oxidase family activity in the ear,[1]; 24 h,63.1181 and 58.052 and 51.7601 and 46.8877 and 41.975
same,Lysyl oxidase family activity in the ear,[1]; 48 h,53.5883 and 61.6934 and 50.7554 and 53.1219
same,Lysyl oxidase family activity in the ear,[1]; 120 h,62.7632 and 56.3978 and 53.8738 and 91.7643
same,Concentration of immature divalent dihyroxylysinonorleucine (DHLNL) collagen cross-links,[2]; [3],2.81 pmol/mL and 3.555 pmol/mL and 2.615 pmol/mL and 4.105 pmol/mL and 3.075 pmol/mL and 4.4 pmol/mL
same,"Concentration of mature trivalent hydroxylysylpyridinoline (Pyr, PYD) collagen cross-links",[2]; [3],4.5 pmol/mL and 5.52 pmol/mL and 3.85 pmol/mL and 8.4 pmol/mL and 6.325 pmol/mL and 6.2 pmol/mL
same,immature divalent DHLNL collagen crosslinks,[2]; [4],decreases
same,mature trivalent Pyr collagen crosslinks,[2]; [4],decreases
same,remaining at 1 h,Plasma stability,97%
